Measured values taken from ChEMBL document CHEMBL1201862, “PubChem BioAssay data set” (2004).
Activity calls are given as the source filed them.

Tests used:
[1] = biological target: T1, Carboxy-terminal domain RNA polymerase II polypeptide A small phosphatase 1 (Homo sapiens, UniProt Q9GZU7); test: CTDSP1 inhibitors, concentration-response, biochemical, absorbance readout, ultra-high-throughput screen actives (AID 540297); format: functional
T1 sequence (Q9GZU7 whole entry): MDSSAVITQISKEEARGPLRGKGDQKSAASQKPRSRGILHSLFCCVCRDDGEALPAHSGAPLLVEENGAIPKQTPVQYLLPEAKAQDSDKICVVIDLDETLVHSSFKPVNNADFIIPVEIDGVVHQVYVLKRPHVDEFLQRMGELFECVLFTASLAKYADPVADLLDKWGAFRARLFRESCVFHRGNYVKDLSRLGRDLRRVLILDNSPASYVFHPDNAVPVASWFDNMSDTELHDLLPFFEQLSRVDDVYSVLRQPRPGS

[2] = biological target: T2, Fatty acid synthase (Homo sapiens, UniProt P49327); test: inhibition of human FAS-TE enzyme activity – biochemical, endpoint fluorescence intensity, uHTS hits, dose response (AID 624327); format: functional;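 also: fluorescence from hydrolysis of an O-methyl fluorescein acyl ester substrate by the enzyme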
T2 sequence (P49327 whole entry): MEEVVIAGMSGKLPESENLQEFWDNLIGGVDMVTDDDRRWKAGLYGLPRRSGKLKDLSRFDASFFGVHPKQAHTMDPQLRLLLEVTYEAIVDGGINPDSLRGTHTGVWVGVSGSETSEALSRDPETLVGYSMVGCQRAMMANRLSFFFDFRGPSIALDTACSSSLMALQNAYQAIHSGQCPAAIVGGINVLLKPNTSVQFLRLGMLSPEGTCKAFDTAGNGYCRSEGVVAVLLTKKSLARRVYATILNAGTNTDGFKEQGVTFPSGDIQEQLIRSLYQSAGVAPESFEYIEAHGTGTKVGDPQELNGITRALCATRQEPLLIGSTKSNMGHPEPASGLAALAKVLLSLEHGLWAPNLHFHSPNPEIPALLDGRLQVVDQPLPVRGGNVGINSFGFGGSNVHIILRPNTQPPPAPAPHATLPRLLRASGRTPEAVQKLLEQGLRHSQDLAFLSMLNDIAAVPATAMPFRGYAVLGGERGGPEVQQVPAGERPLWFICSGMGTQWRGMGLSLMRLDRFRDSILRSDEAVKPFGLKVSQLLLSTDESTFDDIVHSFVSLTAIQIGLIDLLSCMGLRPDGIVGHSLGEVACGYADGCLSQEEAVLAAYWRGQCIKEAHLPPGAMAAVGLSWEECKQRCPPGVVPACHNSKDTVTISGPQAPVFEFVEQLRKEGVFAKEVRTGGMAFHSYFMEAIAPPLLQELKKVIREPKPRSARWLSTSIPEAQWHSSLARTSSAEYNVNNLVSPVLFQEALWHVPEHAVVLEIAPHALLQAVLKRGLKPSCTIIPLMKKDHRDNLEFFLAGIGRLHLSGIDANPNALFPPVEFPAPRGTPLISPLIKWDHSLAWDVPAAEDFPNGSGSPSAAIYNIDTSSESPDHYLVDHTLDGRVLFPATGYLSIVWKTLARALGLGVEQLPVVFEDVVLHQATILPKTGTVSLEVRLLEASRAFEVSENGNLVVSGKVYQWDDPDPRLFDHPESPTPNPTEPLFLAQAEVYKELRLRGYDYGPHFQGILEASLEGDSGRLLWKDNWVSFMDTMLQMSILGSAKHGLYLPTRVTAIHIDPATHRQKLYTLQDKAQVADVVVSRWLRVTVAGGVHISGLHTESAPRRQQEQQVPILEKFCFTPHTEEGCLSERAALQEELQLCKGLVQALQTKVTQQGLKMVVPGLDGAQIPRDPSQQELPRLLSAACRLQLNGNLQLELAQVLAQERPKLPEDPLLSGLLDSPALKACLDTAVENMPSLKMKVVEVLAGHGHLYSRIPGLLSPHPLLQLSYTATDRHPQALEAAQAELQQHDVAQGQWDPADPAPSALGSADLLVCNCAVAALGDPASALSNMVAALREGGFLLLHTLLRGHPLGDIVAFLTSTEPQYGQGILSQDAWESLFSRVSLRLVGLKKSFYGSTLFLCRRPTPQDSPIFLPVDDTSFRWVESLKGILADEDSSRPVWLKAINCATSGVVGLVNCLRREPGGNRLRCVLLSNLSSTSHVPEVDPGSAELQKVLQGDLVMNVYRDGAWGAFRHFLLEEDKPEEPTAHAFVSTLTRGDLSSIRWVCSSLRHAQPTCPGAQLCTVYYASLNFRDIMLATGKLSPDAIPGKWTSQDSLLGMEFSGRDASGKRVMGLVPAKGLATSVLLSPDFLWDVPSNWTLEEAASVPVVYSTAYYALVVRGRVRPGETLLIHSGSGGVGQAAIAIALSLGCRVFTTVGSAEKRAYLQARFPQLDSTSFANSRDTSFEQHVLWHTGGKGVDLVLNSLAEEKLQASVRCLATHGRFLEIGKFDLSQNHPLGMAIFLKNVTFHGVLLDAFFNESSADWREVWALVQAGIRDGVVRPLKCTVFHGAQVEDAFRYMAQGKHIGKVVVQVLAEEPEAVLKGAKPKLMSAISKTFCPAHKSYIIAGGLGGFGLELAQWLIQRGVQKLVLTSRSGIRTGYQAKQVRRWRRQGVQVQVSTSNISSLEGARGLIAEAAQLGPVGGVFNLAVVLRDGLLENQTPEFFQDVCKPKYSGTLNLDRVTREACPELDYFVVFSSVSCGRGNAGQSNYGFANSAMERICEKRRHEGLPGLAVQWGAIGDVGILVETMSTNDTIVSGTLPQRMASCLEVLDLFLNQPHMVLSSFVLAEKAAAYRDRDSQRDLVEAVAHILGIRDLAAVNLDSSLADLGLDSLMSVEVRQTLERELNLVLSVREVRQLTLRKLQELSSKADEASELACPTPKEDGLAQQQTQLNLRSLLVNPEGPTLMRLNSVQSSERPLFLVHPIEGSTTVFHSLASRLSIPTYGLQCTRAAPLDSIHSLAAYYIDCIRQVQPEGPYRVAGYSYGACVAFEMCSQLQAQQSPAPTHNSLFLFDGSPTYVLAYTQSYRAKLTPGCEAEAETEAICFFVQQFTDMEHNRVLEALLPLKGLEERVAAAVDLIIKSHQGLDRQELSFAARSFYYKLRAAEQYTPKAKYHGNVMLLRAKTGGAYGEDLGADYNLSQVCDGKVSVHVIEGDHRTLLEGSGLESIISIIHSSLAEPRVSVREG

[3] = biological target: T2, Fatty acid synthase; test: inhibition of human FAS-TE enzyme activity – biochemical, kinetic fluorescence intensity, dose response (AID 624326); format: functional;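 also: rate of fluorescence rise from hydrolysis of a fluorogenic O-methyl fluorescein ester substrate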
[4] = biological target: T3, RNA-binding protein pos-1 (Caenorhabditis elegans, UniProt G5EF15); test: disruptors of C. elegans POS-1 RNA interaction – biochemical, fluorescence polarization, dose response (AID 1964);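 also: purified POS-1 fused to maltose binding protein made in E. coli; potency of compounds blocking POS-1 binding to fluorescent RNA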
T3 sequence (G5EF15 whole entry): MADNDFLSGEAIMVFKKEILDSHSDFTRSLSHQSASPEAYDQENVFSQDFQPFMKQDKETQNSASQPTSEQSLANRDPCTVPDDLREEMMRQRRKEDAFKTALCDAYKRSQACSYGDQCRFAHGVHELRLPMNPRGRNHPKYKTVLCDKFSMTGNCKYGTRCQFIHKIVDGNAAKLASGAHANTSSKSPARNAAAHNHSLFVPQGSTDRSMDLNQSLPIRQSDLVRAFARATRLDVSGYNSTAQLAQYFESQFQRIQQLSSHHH

[5] = biological target: T4, Zinc finger protein mex-5 (Caenorhabditis elegans, UniProt Q9XUB2); test: potency of MEX-5 RNA-binding blockers – biochemical, C. elegans, fluorescence polarization, dose response (AID 1960)
T4 sequence (Q9XUB2 whole entry): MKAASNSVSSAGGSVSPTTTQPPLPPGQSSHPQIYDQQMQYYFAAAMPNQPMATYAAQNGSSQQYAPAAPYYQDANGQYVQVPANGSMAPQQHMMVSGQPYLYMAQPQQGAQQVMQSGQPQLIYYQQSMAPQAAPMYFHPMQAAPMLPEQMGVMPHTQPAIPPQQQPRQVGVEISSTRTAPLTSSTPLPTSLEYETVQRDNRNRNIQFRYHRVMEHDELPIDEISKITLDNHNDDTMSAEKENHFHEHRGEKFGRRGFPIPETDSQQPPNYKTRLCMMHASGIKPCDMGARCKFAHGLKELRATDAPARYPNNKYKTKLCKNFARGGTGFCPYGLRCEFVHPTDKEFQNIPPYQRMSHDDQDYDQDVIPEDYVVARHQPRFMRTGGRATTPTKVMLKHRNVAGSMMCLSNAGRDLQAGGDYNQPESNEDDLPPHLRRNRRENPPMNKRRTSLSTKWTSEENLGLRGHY

[6] = tested on: H9c2; test: cells; format: functional, cell-based; conditions: Rattus norvegicus, H9c2, Myocardium;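 also: confirmatory concentration-response retest of ultra-high-throughput screening hits for modulation of myocardial damage; cell death induced by hydrogen peroxide oxidative stress; compound pretreatment for 60 min then peroxide exposure for 2 h; potency is for protecting the cells against peroxide damage rather than for killing them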
[7] = biological target: T5, Heat shock factor protein 1 (Mus musculus, UniProt P38532); test: enhancement of HSF1-driven luciferase signal – cell-based, NIH3T3, luminescence, dose retest, confirmation (AID 435004); format: functional;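 also: stress induced by proteasome inhibitor MG132 added 30 min after compound; luciferase reporter driven by HSF1 response element in NIH3T3 cells; actives raise luminescence as potentiators of the MG132 stress response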
T5 sequence (P38532 whole entry): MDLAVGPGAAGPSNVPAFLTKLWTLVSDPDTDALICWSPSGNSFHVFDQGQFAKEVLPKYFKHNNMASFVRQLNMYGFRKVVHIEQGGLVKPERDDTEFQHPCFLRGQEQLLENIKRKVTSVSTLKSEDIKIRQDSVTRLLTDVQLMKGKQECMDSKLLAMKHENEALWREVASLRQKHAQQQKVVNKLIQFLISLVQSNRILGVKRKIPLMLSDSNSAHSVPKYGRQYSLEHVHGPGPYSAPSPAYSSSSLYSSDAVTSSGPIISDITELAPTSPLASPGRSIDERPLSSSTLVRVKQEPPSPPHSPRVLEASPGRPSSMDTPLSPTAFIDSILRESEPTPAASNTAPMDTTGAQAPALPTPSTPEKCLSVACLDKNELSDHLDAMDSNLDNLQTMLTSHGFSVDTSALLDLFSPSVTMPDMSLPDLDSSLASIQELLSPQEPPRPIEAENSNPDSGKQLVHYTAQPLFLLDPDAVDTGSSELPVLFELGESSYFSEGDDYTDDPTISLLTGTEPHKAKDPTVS

[8] = biological target: T6, High affinity choline transporter 1 (Homo sapiens, UniProt Q9GZV3); test: human choline transporter blockers, potency – cell-based, 5-point CRC, membrane potential dye, dose response (AID 504840); format: functional
T6 sequence (Q9GZV3 whole entry): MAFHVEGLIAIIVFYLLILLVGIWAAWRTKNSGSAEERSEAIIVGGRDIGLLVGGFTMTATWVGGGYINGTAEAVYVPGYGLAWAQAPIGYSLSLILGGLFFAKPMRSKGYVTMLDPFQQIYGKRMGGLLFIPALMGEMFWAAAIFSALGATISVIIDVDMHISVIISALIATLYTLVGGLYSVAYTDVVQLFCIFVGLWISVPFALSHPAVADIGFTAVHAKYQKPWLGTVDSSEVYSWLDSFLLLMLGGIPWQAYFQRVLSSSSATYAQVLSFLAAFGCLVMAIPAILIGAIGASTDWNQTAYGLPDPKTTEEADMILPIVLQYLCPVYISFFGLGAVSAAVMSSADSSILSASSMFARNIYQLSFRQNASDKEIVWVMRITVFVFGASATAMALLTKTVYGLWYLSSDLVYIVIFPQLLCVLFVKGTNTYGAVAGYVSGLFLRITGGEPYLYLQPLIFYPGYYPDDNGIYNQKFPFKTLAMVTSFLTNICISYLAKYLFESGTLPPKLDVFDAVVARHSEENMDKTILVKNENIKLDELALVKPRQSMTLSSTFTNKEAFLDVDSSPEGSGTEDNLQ

[9] = reduction of Shn3 3'UTR-driven luciferase in osteoblasts – cell-based, Clone20 osteoblasts, firefly luciferase, cherry-picked, dose response (AID 624132); format: functional;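 also: firefly luciferase luminescence from reporter carrying the Shn3 3'UTR in osteoblasts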
[10] = loss of viability in HepG2 cells – cell-based, CellTiter-Glo, cherry-picked, cytotoxicity control for Shn3 inhibitor project, dose response (AID 624134); format: functional
[11] = non-specific 3'UTR reporter inhibition in Clone20-Shn3RL – cell-based, Renilla luciferase, cherry-picked, counter-screen for Shn3 inhibitor project, dose response (AID 624133); format: functional
[12] = tested on: H4; test: Luminescence Cell-Based Dose Response HTS to Identify Activators of 5'UTR Stem-Loop Driven Prion Protein mRNA Translation in H4 Neuroglioblastoma Cells. [Related pubchem assays: 1829 (Project Summary), 1814 (Primary HTS)]; format: functional; conditions: Homo sapiens
[13] = HIV-1 AD8 envelope cell-cell fusion blockers – cherry-pick, dose response (AID 652062); format: functional, cell-based;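 also: luciferase signal from cell-cell fusion driven by HIV-1 clade B AD8 Env; potency is for inhibitors of fusion seen as a drop in luminescence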
[14] = biological target: T7, Corticotropin-releasing factor receptor 2/Corticotropin-releasing factor-binding protein (Homo sapiens, UniProt P24387+Q13324); test: activators of CRF receptor 2 with binding protein – uHTS hits, confirmation (AID 602473); format: functional; conditions: read-out: EC50_Mean
T7 sequence (Q13324 whole entry): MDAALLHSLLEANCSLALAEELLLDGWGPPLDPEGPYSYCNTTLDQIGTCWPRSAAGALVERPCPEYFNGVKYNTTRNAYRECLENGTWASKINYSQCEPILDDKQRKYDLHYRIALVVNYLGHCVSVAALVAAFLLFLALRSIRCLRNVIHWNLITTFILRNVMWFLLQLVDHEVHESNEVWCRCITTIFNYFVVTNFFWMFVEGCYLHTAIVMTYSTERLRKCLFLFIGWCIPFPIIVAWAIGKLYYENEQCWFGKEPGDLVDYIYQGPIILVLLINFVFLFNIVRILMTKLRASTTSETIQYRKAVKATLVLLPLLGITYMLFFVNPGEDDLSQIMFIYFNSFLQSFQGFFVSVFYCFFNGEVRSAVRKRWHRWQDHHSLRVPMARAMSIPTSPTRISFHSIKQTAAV
T7 sequence (P24387 whole entry): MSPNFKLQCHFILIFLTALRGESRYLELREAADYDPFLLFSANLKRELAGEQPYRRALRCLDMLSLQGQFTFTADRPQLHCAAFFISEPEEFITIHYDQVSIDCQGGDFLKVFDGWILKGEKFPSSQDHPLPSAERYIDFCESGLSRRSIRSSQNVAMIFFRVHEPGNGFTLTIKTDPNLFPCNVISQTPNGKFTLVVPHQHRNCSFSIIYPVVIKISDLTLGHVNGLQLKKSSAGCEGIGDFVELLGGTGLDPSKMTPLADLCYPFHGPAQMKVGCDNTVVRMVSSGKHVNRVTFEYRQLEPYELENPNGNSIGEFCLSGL

COc1ccc(/C=C/C(=O)OCC(=O)NCc2ccco2)cc1OC
IC50 [1]: 14.5 µM (active)

O=C(Cn1cc(C(=O)C2CC2)c2ccccc21)NCc1ccc2c(c1)OCO2
IC50 [2]: 14.3 µM (active) | IC50 [3]: 8.36 µM (active)

O=[N+]([O-])c1cccc(NC(S)=NCCc2ccccc2)c1
IC50 [2]: 10.1 µM (active) | IC50 [3]: 9.04 µM (active)

Nc1c(C(=O)N/N=C/c2cccnc2)oc2nc(-c3ccccc3)cc(-c3ccco3)c12
EC50 [4]: > 300 µM (not active) | EC50 [5]: > 300 µM (not active) | IC50 [6]: > 79 µM (inactive)

COc1cc2c(C(=O)NCc3ccccn3)cn(CC(C)C)c(=O)c2cc1OC
IC50 [6]: > 79 µM (inactive)

O=C(COc1ccc([N+](=O)[O-])cc1)N1CCc2ccccc2C1
IC50 [2]: 6.92 µM (active) | IC50 [3]: 3.46 µM (active)

O=C(NC1CCCCC1)c1cnn2c(C(F)(F)F)cc(-c3ccco3)nc12
EC50 [7]: > 260 µM (inactive)

COc1ccccc1OCCSc1nc(O)c2ccccc2n1
IC50 [6]: 14.4 µM (active)

NC(=S)N/N=C1/CCSc2ccc3ccccc3c21
IC50 [8]: 6.48 µM (active)

CNc1nc(SC(C)C(=O)Nc2ccc(Cl)c(Cl)c2)nc(N2CCOCC2)n1 (stereo not drawn)
EC50 [7]: > 260 µM (inactive)

COc1cccc(OC)c1C(=O)Nc1ccc(Br)c(C(=O)c2ccccc2)c1
IC50 [6]: 31.1 µM (inactive)

COCCn1c(CN2CCN(c3cccc(Cl)c3)CC2)nc2c1c(=O)n(C)c(=O)n2C
IC50 [8]: 12.3 µM (active) | AC50 [9]: 10.7 µM (active) | AC50 [10]: 52.3 µM (active) | AC50 [11]: 11 µM (active)

COc1ccc([C@@H]2[C@@H]3C(=O)N(C(C)(C)C)C(=O)[C@@H]3[C@]3(Cc4ccccc4)C(=O)N(c4cccc(Br)c4)C(=O)N23)cc1
IC50 [2]: 21.5 µM (inactive) | IC50 [3]: 13.7 µM (active)

NCCCCCc1nnc(SCc2ccc(Cl)c(Cl)c2)o1
IC50 [8]: 13.2 µM (active)

Cc1cc(C)nc(N2N=C(CSc3ccc(Cl)cc3)CC2=O)n1
IC50 [8]: 15.1 µM (active)

Cc1ccc(C(C)C)c(OCC(=O)NS(=O)(=O)c2ccc(Cl)cc2)c1
IC50 [8]: 11.8 µM (active)

O=[N+]([O-])c1cccn2cc(-c3ccc(Br)cc3)nc12
EC50 [12]: > 120 µM (not active) | IC50 [1]: 9.74 µM (active)

Cc1ccc2c(C)c(C(=O)N3CCC(N4CCC(C(=O)NC5CC5)CC4)CC3)oc2c1
IC50 [8]: 14.5 µM (active)

Cn1c(NN)nc2c1c(=O)n(Cc1ccccc1)c(=O)n2C
IC50 [1]: 25.2 µM (active)

CNC(=O)c1cccc(NC(=O)c2cc(-c3ccccc3)nc3c2cnn3C(C)C)c1
IC50 [6]: > 79 µM (inactive)

CC(C)(C)NC(=O)CC1C[C@H](C(=O)N2CCOCC2)[C@@]2(CCC3CCCC3)c3[nH]c4ccccc4c3CCN2C1=O (stereo partly drawn)
IC50 [2]: 2.31 µM (active) | IC50 [3]: 4.15 µM (active)

CCN1C(=O)[C@H]2[C@H]3CN=C(SCC4CC4)N3[C@@](Cc3ccccc3)(C(=O)OC)[C@H]2C1=O
IC50 [1]: 12.1 µM (active)

O=C(C[C@@H]1C[C@@H]2c3cc(NS(=O)(=O)c4ccc(F)cc4)ccc3O[C@@H]2[C@H](CO)O1)NCc1ccccc1F
AC50 [13]: 1.75 µM (active)

O=[N+]([O-])c1ccc(O)c(CSc2nnnn2-c2ccccc2)c1
IC50 [8]: 12 µM (active)

O=C(O)/C(=C/c1ccc(Cl)c([N+](=O)[O-])c1)c1ccc(S(=O)(=O)N2CCCCC2)s1
IC50 [2]: 15.4 µM (active) | IC50 [3]: 12.6 µM (active)

COc1cccc(NC(=O)COC(=O)c2ccc(S(=O)(=O)NCc3ccco3)cc2)c1
IC50 [1]: 7.96 µM (active)

O=C(NCC(=O)N(Cc1cccs1)C(C(=O)NC1CCCCC1)c1ccco1)c1cccs1 (stereo not drawn)
IC50 [6]: 8.09 µM (active)

COc1ccc(-c2cc(C(F)F)n3ncc(C(=O)Nc4ccc(C(=O)N5CCOCC5)cc4)c3n2)cc1
IC50 [6]: > 79 µM (inactive)

Cn1c(=O)c(NC(=O)c2ccccc2)c2n(c1=S)CCCCC2
IC50 [1]: 14.3 µM (active)

N#C/C(=N\Nc1cccc(Cl)c1)C(=O)c1ccccc1
IC50 [8]: 13.8 µM (active) | EC50 [14]: > 53 µM (inactive)
